From patent US4255183A, “Substituted phenyl urea and herbicides for use in paddy field” (Hokko Chemical Industry Co., Ltd., priority 1977, dated 1981)
Read-outs that look alike come from different tables or passages of the source.

Experiments:
[1] = test system: Echinochloa crus-galli var. oryzicola; test: Test Example 2: concrete pot test on killing effect, Echinochloa crus-galli var. oryzicola; format: in vivo; conditions: Echinochloa crus-galli, 720 h, granule, 30 days after treatment; for inhibition at 1000 g/ha: 100 g/10 are; for inhibition at 3000 g/ha: 300 g/10 are; for inhibition at 9000 g/ha: 900 g/10 are
Summary of the method: (§1)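 Barnyardgrass seeded in flooded alluvial paddy soil (~3 cm water) in concrete pots, with 2.5-leaf Asahi rice transplanted before weed emergence. Granules applied at weed 1-leaf or 5-leaf stage. Dry weights measured 30 days after treatment; inhibition rate calculated versus untreated area.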

[2] = test system: paddy rice; test: whole plant or invertebrate; format: in vivo, paddy rice (Asahi species); conditions: Oryza sativa, 720 h, granule, 30 days; for inhibition at 1000 g/ha: 100 g/10 are; for inhibition at 3000 g/ha: 300 g/10 are; for inhibition at 9000 g/ha: 900 g/10 are
Summary of the method: as §1

[3] = Acute fish toxicity; conditions: in vivo; young carp, Official Standard of Ministry of Agriculture & Forestry; read-out: acute fish toxicity TLm
Description: (§2) Acute oral toxicity LD50 value of the compound of the invention measured on SD-strain rat is more than 2,000 mg/Kg for any of the trans-form, cis-form and a mixture thereof in equal amount and further acute fish toxicity TLm value (as defined by Official Standard issued from Ministry of Agriculture & Forestry) measured on young carp is more than 20 ppm for any of the above compounds.

[4] = test system: Umbrella plant; test: Test Example 5: Wagner pot test, herbicidal effect on umbrella plant; format: in vivo; conditions: 20 days after application
Summary of the method: (§3)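 Paddy soil in 1/7500 are Wagner pots flooded about 2 cm, transplanted rice (2–3-leaf stage), sown bulrush, naturally emerging other weeds. Emulsion applied dropwise to water surface at predetermined concentration when weeds reached defined leaf age. Herbicidal effect and rice injury scored by index 20 days after application, three replicates.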

[5] = test system: Dopatrium junceum; test: Test Example 5: Wagner pot test, herbicidal effect on Dopatrium junceum; format: in vivo
Summary of the method: as §3

[6] = test system: Echinochloa crus-galli var. oryzicola; test: Test Example 3: field test in transplanted paddy field, Echinochloa crus-galli var. oryzicola; format: in vivo; conditions: Echinochloa crus-galli, 1440 h; 300 g/10 are, granule, applied at 4-leaf stage, examined 60 days after transplantation; read-out: Inhibition (%) of E. crus-galli var. oryzicola
Description: In a Wagner pot of 1/500 are, paddy field soil (alluvial soil) was placed and 50 seeds of Echinochloa crus-galli var. oryzicola and 30 seeds of paddy rice were seeded in the surface layer of said soil and the submerging depth was kept at about 1 cm. When Echinochloa crus-galli var. oryzicola reached at the one leaf stage and 5-leaf stage, the emulsion of a predetermined concentration, prepared according to Example 4 was added dropwise. After 30 days from the treatment with the chemical, dry weights of Echinochloa crus-galli var. oryzicola and paddy rice were measured and the inhibition rate was calculated with reference to untreated area. [formula]
In a 10 m^2 paddy field, young seedlings of paddy rice (Asahi species) at the 2,5-leaf stage were transplanted 30 days after the puddling the submerging at the depth of 3-5 cm. 25 Days after the transplantation, when Echinochloa crus-galli var. oryzicola reached 4-leaf stage, a predetermined dose of the granule prepared according to Example 1 was applied. Test results were examined 60 days after the transplantation of paddy rice in the similar manner as in Test Example 1.
Comparative chemicals used were all those commercially available and in the case of the comparative chemical 2, CNP was applied 3 days after the transplantation of paddy rice and after 25 days a mixture of Benthiocarb and Simetryne was applied.

[7] = test system: paddy rice; test: Test Example 1: pot test on selectivity, inhibition of paddy rice; format: in vivo; conditions: for inhibition at 750 g/ha / inhibition at 1500 g/ha / inhibition at 3000 g/ha / inhibition at 6000 g/ha / inhibition at 9000 g/ha: Oryza sativa, 720 h, dry weight 30 days after treatment; for inhibition at 750 g/ha: 75 g/10 are; for inhibition at 1500 g/ha: 150 g/10 are; for inhibition at 3000 g/ha: 300 g/10 are; for inhibition at 6000 g/ha: 600 g/10 are; for inhibition at 9000 g/ha: 900 g/10 are
Summary of the method: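 Alluvial paddy soil in pots sown with Echinochloa crus-galli var. oryzicola (50 seeds) and paddy rice (30 seeds), submerged about 1 cm. Dry weights taken 30 days after chemical treatment; inhibition rate calculated relative to untreated area.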

[8] = Acute oral toxicity; conditions: in vivo, SD-strain rat
Description: as §2

[9] = test system: Echinochloa crus-galli var. oryzicola; test: Test Example 1: pot test on selectivity, inhibition of Echinochloa crus-galli var. oryzicola; format: in vivo; conditions: for inhibition at 750 g/ha / inhibition at 1500 g/ha / inhibition at 3000 g/ha / inhibition at 6000 g/ha / inhibition at 9000 g/ha: Echinochloa crus-galli, 720 h, dry weight 30 days after treatment; for inhibition at 750 g/ha: 75 g/10 are; for inhibition at 1500 g/ha: 150 g/10 are; for inhibition at 3000 g/ha: 300 g/10 are; for inhibition at 6000 g/ha: 600 g/10 are; for inhibition at 9000 g/ha: 900 g/10 are
Summary of the method: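 Paddy soil pots were sown with 50 barnyard grass and 30 rice seeds under about 1 cm flooding, and emulsion at set concentrations was dripped in at the weed's 1-leaf and 5-leaf stages. After 30 days, dry weights of weed and rice gave inhibition versus untreated.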

[10] = read-out: Inhibition (%) by treatment at 1-leaf stage of E. crus-galli var. oryzicola, E. crus-galli var. oryzicola
[11] = read-out: Inhibition (%) by treatment at 5-leaf stage of E. crus-galli var. oryzicola, E. crus-galli var. oryzicola
[12] = rice at 3.5 leaves stage, read-out: Inhibition (%) by treatment at 1-leaf stage of E. crus-galli var. oryzicola, paddy rice
[13] = rice at 7 leaves stage, read-out: Inhibition (%) by treatment at 5-leaf stage of E. crus-galli var. oryzicola, paddy rice
[14] = 1-leaf stage, read-out: Inhibition (%) by treatment at 1-leaf stage, paddy rice
[15] = 5-leaf stage, read-out: Inhibition (%) by treatment at 5-leaf stage, paddy rice
[16] = trans-form, cis-form and mixtures compared
[17] = 1-leaf stage, read-out: Inhibition (%) by treatment at 1-leaf stage, E. crus-galli var. oryzicola
[18] = 5-leaf stage, read-out: Inhibition (%) by treatment at 5-leaf stage, E. crus-galli var. oryzicola

Compound C/C=C\COc1ccc(NC(=O)N(C)C)cc1 [cis-form, 3-(4-cis-crotyloxyphenyl)-1,1-dimethyl urea] has an inhibition at 1000 g/ha [1, 10] of 100%, an inhibition at 1000 g/ha [1, 11] of 100% and an inhibition at 3000 g/ha [1, 10] of 100%. It also gave an inhibition at 3000 g/ha [1, 11] of 100%, an inhibition at 9000 g/ha [1, 10] of 100% and an inhibition at 9000 g/ha [1, 11] of 100%. It also gave an inhibition at 1000 g/ha [2, 12] of 0%, an inhibition at 1000 g/ha [2, 13] of 0% and an inhibition at 3000 g/ha [2, 12] of 0%. It also gave an inhibition at 3000 g/ha [2, 13] of 0%, an inhibition at 9000 g/ha [2, 12] of 0% and an inhibition at 9000 g/ha [2, 13] of 0%. The LC50 [3] was over 20 mg/L, the “Weed kill degree, Umbrella plant” value ([4]; 300 g/10a, leaf age 2 (first group of columns)) was 5 (100) and the “Weed kill degree, Umbrella plant” value ([4]; 300 g/10a, leaf age 2 (second group of columns)) was 5 (100). For the same compound, the “Weed kill degree, Umbrella plant” value ([4]; 600 g/10a, leaf age 2 (first group of columns)) was 5 (100), the “Weed kill degree, Umbrella plant” value ([4]; 600 g/10a, leaf age 2 (second group of columns)) was 5 (100) and the “Weed kill degree, Dopatrium junceum” value ([5]; 300 g/10a, leaf age 2, 20 days after application) was 5 (100). For the same compound, the “Weed kill degree, Dopatrium junceum” value ([5]; 300 g/10a, leaf age 3, 20 days after application) was 5 (100), the “Weed kill degree, Dopatrium junceum” value ([5]; 600 g/10a, leaf age 2, 20 days after application) was 5 (100) and the “Weed kill degree, Dopatrium junceum” value ([5]; 600 g/10a, leaf age 3, 20 days after application) was 5 (100). It also gave an inhibition at 3000 g/ha [6] of 100%, an inhibition at 750 g/ha [7, 14] of 0% and an inhibition at 750 g/ha [7, 15] of 0%. The inhibition at 1500 g/ha [7, 14] was 0%, the inhibition at 1500 g/ha [7, 15] was 0% and the inhibition at 3000 g/ha [7, 14] was 0%. It also gave an inhibition at 3000 g/ha [7, 15] of 0%, an inhibition at 6000 g/ha [7, 14] of 0% and an inhibition at 6000 g/ha [7, 15] of 0%. The inhibition at 9000 g/ha [7, 14] was 3%, the inhibition at 9000 g/ha [7, 15] was 0% and the “selectivity to paddy rice” value [7, 16] was “equivalent”. It also gave an LD50 [8] of over 2000 mg/kg, an inhibition at 750 g/ha [9, 17] of 95% and an inhibition at 750 g/ha [9, 18] of 82%. The inhibition at 1500 g/ha [9, 17] was 100%, the inhibition at 1500 g/ha [9, 18] was 100% and the inhibition at 3000 g/ha [9, 17] was 100%. For the same compound, the inhibition at 3000 g/ha [9, 18] was 100%, the inhibition at 6000 g/ha [9, 17] was 100% and the inhibition at 6000 g/ha [9, 18] was 100%. For the same compound, the inhibition at 9000 g/ha [9, 17] was 100%, the inhibition at 9000 g/ha [9, 18] was 100% and the “activity for killing Echinochloa spp.” value [9, 16] was “equivalent”.
